Paper PMC6154719 (Molecules : A Journal of Synthetic Chemistry and Natural …, 2017)

What was measured:
Type in all cases: in vitro ADME
[1] = biological target: T1, CYP1A2 (Homo sapiens, UniProt P05177); test: CYP1A2 (EROD activity, 7-ethoxyresorufin O-deethylation) in human liver microsomes; conditions: for Specific Activity, CYP1A2 (EROD activity): in the presence of 100 µM sesquiterpene, control 1.88 ± 0.19; for inhibition at 5 µM: liver microsomes, probe 7-ethoxyresorufin, human, 5 µM inhibitor
T1 construct: Frozen liver (both rat and human) was thawed; from tissue; host or cells: human liver microsomal fraction
T1 sequence (P05177 1-516): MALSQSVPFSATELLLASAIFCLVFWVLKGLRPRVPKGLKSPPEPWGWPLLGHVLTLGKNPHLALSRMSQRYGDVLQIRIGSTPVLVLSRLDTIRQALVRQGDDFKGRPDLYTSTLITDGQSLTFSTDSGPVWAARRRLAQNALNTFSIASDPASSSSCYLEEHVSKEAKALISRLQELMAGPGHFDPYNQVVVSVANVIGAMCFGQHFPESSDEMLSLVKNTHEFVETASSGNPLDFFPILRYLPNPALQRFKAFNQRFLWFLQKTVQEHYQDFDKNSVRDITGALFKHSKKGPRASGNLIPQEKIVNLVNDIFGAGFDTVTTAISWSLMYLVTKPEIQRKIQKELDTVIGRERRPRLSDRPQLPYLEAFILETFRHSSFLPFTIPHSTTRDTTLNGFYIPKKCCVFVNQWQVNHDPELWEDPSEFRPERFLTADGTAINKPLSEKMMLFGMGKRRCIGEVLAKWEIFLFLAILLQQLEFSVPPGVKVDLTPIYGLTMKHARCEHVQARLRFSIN
Procedure: (§1) Enzyme activities were assayed in human and rat liver cytosolic and microsomal fractions. The enzyme assays (each performed in 4–8 replicates) were repeated three times (HPLC measurement of CYP activities was repeated only twice, Table 3). Inhibition studies were carried out by incubation of specific substrates in the presence of sesquiterpenes (in the range 0–100 µM).
Enzyme activities of individual CYP forms were measured according to established protocols. The following microsomal CYP activities were tested: CYP2A6, coumarin 7-hydroxylation; CYP2B6, 7-ethoxy-4-(trifluoromethyl)coumarin 7-deethylation, CYP2C9, diclofenac 4′-hydroxylation, CYP2C19 assay, S-mephenytoin 4′-hydroxylation, CYP2D6 on bufuralol 1′-hydroxylation, CYP2E1, chlorzoxazone 6-hydroxylation and CYP3A4, testosterone 6β-hydroxylation, and midazolam 1′-hydroxylation. Activities were measured using the Prominence HPLC system (Shimadzu, Kyoto, Japan), equipped with a LiChroCART 250-4 LiChrospher 100 RP-18 column or Chromolith®HighResolution RP-18 end-capped column (Merck, Darmstadt, Germany) and UV or fluorescence detection, according to the cited literature. Further incubation details are described either in the corresponding references, as well as in the papers from this laboratory e.g., [42, 43, 44]. CYP1A2, 7-ethoxyresorufin O-deethylation, and CYP3A4/2B6 (human), CYP2B1 (rat), benzyloxyresorufin O-debenzylation were measured using the microplate reader Tecan Infinite M200 (Tecan Group; Mannedorf, Switzerland).
Sesquiterpenes CNER, TNER and FAR, non-volatile liquids, were pipetted, and proper concentration was calculated according to density. All compounds were dissolved in DMSO. […] All experiments were performed in three replicates, if not stated otherwise.
(§2) CNER, TNER and FAR at a fixed concentration of 100 µM were screened for inhibition of cytosolic AKR1A1, AKR1C, CBR1, NQO1, SULT, and GST, and microsomal CYPs and UGT. The degree of inhibition caused by sesquiterpenes was compared with non-inhibited control reactions, which contained solvent without sesquiterpenes.
The concentration of sesquiterpenes required for 50% inhibition of enzyme activity, the IC50 value, was determined. […] The IC50 values for each sesquiterpene were determined by plotting sigmoidal dose response curves of specific enzyme activity vs. logarithm of sesquiterpene concentration using GraphPad Prism version 6.07 for Windows (GraphPad Software Inc., La Jolla, CA, USA).
The kinetic inactivation study of the CYP1A2 (EROD activity) and CYP2B/3A (BROD activity), both in rat and human, with TNER, was performed to find out the mechanism of enzyme inhibition by this sesquiterpene. Mechanism of EROD and BROD inhibition was tested at the final ethoxyresorufin or benzyloxyresorufin concentrations 0.5–5.0 µM. The concentration of TNER was 5.0 µM.
Experimental data were fitted to the Michaelis-Menten equation, basic kinetic parameters were determined using the program GraphPad Prism version 6.07 for Windows. The type of inhibition was estimated using a Lineweaver-Burk (double-reciprocal) plot.

[2] = biological target: T2, NQO1 (Homo sapiens, UniProt P15559); test: NQO1 activity in human liver subcellular fraction; conditions: 100 µM sesquiterpene, control 6.38 ± 0.34
T2 construct: Frozen liver (both rat and human) was thawed; from tissue; host or cells: human liver cytosolic fraction
Procedure: as §1
(§3) The assays of all other enzymes were based on spectrophotometric detection of product formed or detection of decreasing substrate/cofactor levels using microplate reader Tecan Infinite M200 in cytosolic or microsomal fractions. Enzyme activities were determined using slight modifications of previously-published methods: carbonyl reducing enzymes (AKR1A, AKR1C, CBR1 [45], NQO1 [46]), UDP-glucuronosyltransferase (UGT [47]), sulfotransferase (SULT [48]), and cytosolic glutathione-S-transferase (GST [49]).
(§4) Sesquiterpenes CNER, TNER and FAR, non-volatile liquids, were pipetted, and proper concentration was calculated according to density. All compounds were dissolved in DMSO. The final solvent concentration in the inhibition assays was 1%, which had no effect on the enzyme activity (data not shown). Non-enzymatic interference of sesquiterpenes with some compounds in the reaction mixtures (e.g., fluorescence enhancing or quenching) was considered and excluded. All experiments were performed in three replicates, if not stated otherwise.
as §2

[3] = biological target: T3, CBR1 (Rattus norvegicus, UniProt P47727); test: CBR1 activity in rat liver subcellular fraction; conditions: 100 µM sesquiterpene, control 21.7 ± 1.6
T3 construct: Frozen liver (both rat and human) was thawed; from tissue; host or cells: rat liver cytosolic fraction
T3 sequence (P47727 1-277): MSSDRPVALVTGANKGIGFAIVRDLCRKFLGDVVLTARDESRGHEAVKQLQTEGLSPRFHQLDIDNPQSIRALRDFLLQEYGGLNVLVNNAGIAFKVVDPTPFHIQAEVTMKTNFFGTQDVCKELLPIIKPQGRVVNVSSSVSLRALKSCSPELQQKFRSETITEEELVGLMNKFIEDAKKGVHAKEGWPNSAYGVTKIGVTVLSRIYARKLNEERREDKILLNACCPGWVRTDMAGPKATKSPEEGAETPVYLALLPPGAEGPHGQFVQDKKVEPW
Procedure: as §1, §3, §4, §2

[4] = system: GST; test: GST activity in human liver subcellular fraction; conditions: 100 µM sesquiterpene, control 223 ± 19
Procedure: as §1, §3, §4, §2

[5] = system: GST; test: GST activity in rat liver subcellular fraction; conditions: 100 µM sesquiterpene, control 350 ± 8
Procedure: as §1, §3, §4, §2

[6] = system: UGT; test: UGT activity in rat liver subcellular fraction; conditions: 100 µM sesquiterpene, control 16.2 ± 0.98
Procedure: as §1, §3, §4, §2

T2 sequence (P15559 whole entry): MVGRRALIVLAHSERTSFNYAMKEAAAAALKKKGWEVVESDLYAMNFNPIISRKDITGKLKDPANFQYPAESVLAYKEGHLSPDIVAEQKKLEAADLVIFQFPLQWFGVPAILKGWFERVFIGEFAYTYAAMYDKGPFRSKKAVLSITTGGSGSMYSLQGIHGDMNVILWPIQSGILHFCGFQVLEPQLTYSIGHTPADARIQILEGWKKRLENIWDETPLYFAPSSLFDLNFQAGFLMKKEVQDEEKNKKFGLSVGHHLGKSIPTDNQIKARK

C=CC(C)(O)CC/C=C(/C)CCC=C(C)C (stereo not drawn) [CNER, cis-nerolidol]
IC50 ([1]; human liver microsomes): 2490 nM | Specific Activity, CYP1A2 (EROD activity) ([1]; human liver microsomes): 0.163 ± 0.005 pmol/mg/min | inhibition at 5 µM [1]: 50% | Specific activity, NQO1 [2]: 5.44 ± 0.82 nmol/mg/min | Specific activity, CBR1 [3]: 19.5 ± 1.4 nmol/mg/min | Specific activity, GST [4]: 209 ± 10 nmol/mg/min | Specific activity, GST [5]: 334 ± 22 nmol/mg/min | Specific activity, UGT [6]: 15.9 ± 1.11 nmol/mg/min

CC(C)=CCC/C(C)=C/CC/C(C)=C/CO [FAR, farnesol]
IC50 ([1]; human liver microsomes): 1830 nM | Specific Activity, CYP1A2 (EROD activity) ([1]; human liver microsomes): 0.083 ± 0.005 pmol/mg/min | inhibition at 5 µM [1]: 77% | Specific activity, NQO1 [2]: 5.23 ± 1.03 nmol/mg/min | Specific activity, CBR1 [3]: 21.1 ± 1.4 nmol/mg/min | Specific activity, GST [4]: 181 ± 13 nmol/mg/min | Specific activity, GST [5]: 345 ± 20 nmol/mg/min | Specific activity, UGT [6]: 14.3 ± 3.15 nmol/mg/min

C=CC(C)(O)CC/C=C(\C)CCC=C(C)C (stereo not drawn) [TNER, trans-nerolidol]
IC50 ([1]; human liver microsomes): 8690 nM | Ki ([1]; human liver microsomes, EROD activity): 920 ± 520 nM | Specific Activity, CYP1A2 (EROD activity) ([1]; human liver microsomes): 0.287 ± 0.013 pmol/mg/min | type of inhibition, CYP1A2 (EROD) ([1]; human microsomes, 5 µM TNER, ethoxyresorufin 0.5–5.0 µM): competitively | inhibition at 5 µM [1]: 38% | Specific activity, NQO1 [2]: 5.53 ± 0.51 nmol/mg/min | Specific activity, CBR1 [3]: 20.5 ± 1.6 nmol/mg/min | Specific activity, GST [4]: 235 ± 13 nmol/mg/min | Specific activity, GST [5]: 354 ± 37 nmol/mg/min | Specific activity, UGT [6]: 16.4 ± 2.46 nmol/mg/min
